In brackets after ≈: the same amount, converted by molar mass.
Experiments:
[1] = test system: Shigella flexineri (MTCC1457); assay: Susceptibility (MIC50/MIC90), broth microdilution; assay type: cell-based
E. coli Topoisomerase IA = E. coli Topoisomerase IA (Escherichia coli, UniProt P06612); assay: Topoisomerase IA cleavage and religation assay; assay type: biochemical; conditions: biochemical assays and computational studies
Method: Compounds at different concentrations were added to DNA cleavage reaction mixtures (20 μl) containing 50 mM TrisHCl, pH 7.5, 2 mM MgCl2 0.2 mM DTT, 0.5 mM EDTA, 30 μg/ml BSA, 25 μg/ml of pHOT1 having specific site for DNA, 40 units of E. coli Topoisomerase IA and ligands was incubated at 37° C. for 30 min. The reactions was then terminated by adding 1% SDS and 150 μg/m Proteinase K, and incubated further for 1 h at 37° C. The DNA samples was electrophoresed in 1% agarose gel in 0.5×TBE. Ethidium bromide at a finial concentration of 0.5 μg/ml was included in the gel to resolve slowly migrating nicked product (cleavable complex) from the supercoiled DNA molecules.

Enterococcus sp. (1121) [2] = assay: Susceptibility (MIC50/MIC90), broth microdilution
Method: (§1) MICs were determined by the broth microdilution method according to CLSI methods (Clinical and Laboratory Standards Institute, 2005). Inoculants were incubated at 37° C. on cation adjusted Mueller Hinton (MH) Broth for 18 to 24 h. Compound were dissolved in media to 10 doubling dilutions from 128 to 0.125 μg/mL. All the bacterial strains were grown in 96 well plate with low evaporation lid (Falcon, Becton Dickinson) in presence of derivatives of benzimidazoles at 0.125, 0.25, 0.5, 1, 2, 4, 8, 16, 32, 64, 128, 256 μg/mL concentrations. […] Plates were read by Tecan Micro-plate Reader at 600 nm.

Enterococcus sp. (1365) = assay: Susceptibility (MIC50/MIC90), broth microdilution
Method: as §1

Enterococcus sp. (432) = assay: Susceptibility (MIC50/MIC90), broth microdilution
Method: as §1

Escherichia coli 385 = assay: Susceptibility (MIC50/MIC90), broth microdilution
Method: as §1

[3] = test system: Pseudomonas aeruginosa (MTCC 366); assay: Susceptibility (MIC50/MIC90), broth microdilution; conditions: MTCC366
Method: as §1

[4] = test system: Klebsiella planticola (K1164); assay: Susceptibility (MIC50/MIC90), broth microdilution
Method: as §1

[5] = test system: Salmonella typhimurium (MTCC 1251); assay: Susceptibility (MIC50/MIC90), broth microdilution; conditions: Salmonella enterica
Method: as §1

[6] = test system: Salmonella typhimurium (St412); assay: Susceptibility (MIC50/MIC90), broth microdilution; conditions: Salmonella enterica
Method: as §1

E. coli K12 mutant ΔacrA = assay: Susceptibility of E. coli K12 and mutants (MIC90); conditions: Escherichia coli
Method: as §1

E. coli K12 mutant ΔemrA = assay: Susceptibility of E. coli K12 and mutants (MIC90); conditions: Escherichia coli
Method: as §1

E. coli K12 mutant ΔtolC = assay: Susceptibility of E. coli K12 and mutants (MIC90); conditions: Escherichia coli
Method: as §1

E. coli 360^R = assay: Susceptibility (MIC, PAE, MBC), broth microdilution; conditions: Escherichia coli
Method: as §1

E. coli 132^R = assay: as above; conditions: Escherichia coli
Method: as §1

E. coli 555^R = assay: as above; conditions: Escherichia coli
Method: as §1

[7] = test system: most of the pathogenic bacterial strains; assay: MIC of HN12b in combination with efflux pump inhibitor; conditions: combination with CCCP and PAβN
Method: Briefly, the broth microdilution plates were inoculated with each test organism to yield the appropriate density (10^5 CFU/ml) in 100 μl Mueller-Hinton broth (MHB) and incubated for 24 h at 37° C. in ambient air. One well with no antibiotic was used as a positive growth control on each plate. Plates were read for visual turbidity, and results were recorded after 24 h of incubation at 37° C. in ambient air by using a magnifying mirror reader, as turbidity in wells indicated growth of the microorganism. The MIC was determined as the well in the microtiter plate with the lowest drug concentration at which there was no visible growth. […] MICAB was defined as the MIC of drug A in the presence of drug B; MICBA was defined as the MIC of drug B in the presence of drug A.

E. coli ATCC25922 = assay: HN12b in combination with efflux pump inhibitors (CB method, FICI); conditions: for FICI / Interpretation: E. coli ATCC25922
Method: (§2) 96-well microtiter plates containing MIC25 concentrations of the Efflux pump inhibitor (CCCP, PAβN) and HN12b antimicrobial drugs alone and in CB combination were used. The MICs of the individual drugs HN12b, PAβN and CCCP (0.25 to 128 μg/ml) and of the combinations were determined using the broth microdilution technique as recommended by the CLSI. Briefly, the broth microdilution plates were inoculated with each test organism to yield the appropriate density (10^5 CFU/ml) in 100 μl Mueller-Hinton broth (MHB) and incubated for 24 h at 37° C. in ambient air. One well with no antibiotic was used as a positive growth control on each plate. Plates were read for visual turbidity, and results were recorded after 24 h of incubation at 37° C. in ambient air by using a magnifying mirror reader, as turbidity in wells indicated growth of the microorganism. The MIC was determined as the well in the microtiter plate with the lowest drug concentration at which there was no visible growth. […] MICAB was defined as the MIC of drug A in the presence of drug B; MICBA was defined as the MIC of drug B in the presence of drug A.
(§3) The fractional inhibitory concentration index (FICI) was calculated for each antibiotic in each combination by using the following formula: FICA+FICB=FICI, where FICA equals the MIC of drug A in combination divided by the MIC of drug A alone and FICB equals the MIC of drug B in combination divided by the MIC of drug B alone. The FICIs were interpreted as follows: FICI of ≤0.5 will correspond to synergy; FICI of >0.5 to ≤1 will correspond to additivity; FICI of >1 to ≤4 will correspond to no interaction (indifference), and FICI of >4 will correspond antagonism.

E. coli KK45 = assay: as above
Method: as §2, §3

[8] = test system: K. planticola (MTCC 2272); assay: as above
Method: as §2, §3

P. aeruginosa (MTCC1688) = assay: as above
Method: as §2, §3

P. aeruginosa (Ps 366) = assay: as above
Method: as §2, §3

Enterococcus sp. (1121) [9] = assay: as above
Method: as §2, §3

Providencia sp. (P592) = assay: as above
Method: as §2, §3

[10] = K. planticola (MTCC 2272), HN12b + CCCP
[11] = P. aeruginosa (MTCC1688), HN12b + CCCP
[12] = P. aeruginosa (Ps 366), HN12b + CCCP
[13] = Enterococcus sp. (1121), HN12b + CCCP
[14] = Providencia sp. (P592), HN12b + PAβN

E. coli Topoisomerase IA, sequence (P06612 whole entry): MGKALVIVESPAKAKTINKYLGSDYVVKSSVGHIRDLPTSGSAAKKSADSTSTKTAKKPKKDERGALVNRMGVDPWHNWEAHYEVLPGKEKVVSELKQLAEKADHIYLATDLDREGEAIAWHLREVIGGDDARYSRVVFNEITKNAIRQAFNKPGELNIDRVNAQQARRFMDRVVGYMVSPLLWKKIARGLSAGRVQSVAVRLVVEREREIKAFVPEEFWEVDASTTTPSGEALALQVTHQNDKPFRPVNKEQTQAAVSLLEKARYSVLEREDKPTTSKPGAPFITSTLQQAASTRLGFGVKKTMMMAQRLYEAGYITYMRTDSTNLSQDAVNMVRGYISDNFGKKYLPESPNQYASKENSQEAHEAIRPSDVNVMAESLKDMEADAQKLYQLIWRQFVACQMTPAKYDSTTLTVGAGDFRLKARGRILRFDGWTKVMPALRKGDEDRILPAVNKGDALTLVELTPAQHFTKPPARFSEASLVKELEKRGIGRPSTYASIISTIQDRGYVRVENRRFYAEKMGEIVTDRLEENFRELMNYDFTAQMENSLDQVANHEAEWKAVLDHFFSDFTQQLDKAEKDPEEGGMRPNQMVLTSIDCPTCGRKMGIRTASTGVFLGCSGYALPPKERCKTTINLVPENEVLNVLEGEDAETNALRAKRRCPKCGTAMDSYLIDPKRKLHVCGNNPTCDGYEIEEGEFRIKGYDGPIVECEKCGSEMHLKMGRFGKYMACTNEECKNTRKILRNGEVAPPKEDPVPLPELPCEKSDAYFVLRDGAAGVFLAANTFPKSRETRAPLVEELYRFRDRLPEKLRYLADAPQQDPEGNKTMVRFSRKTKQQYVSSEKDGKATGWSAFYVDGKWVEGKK

CCCN1CCN(c2nc3ccc(-c4nc5ccccc5[nH]4)cc3[nH]2)CC1 [HN12b, 2′-(4-propylpiperazine-1-yl)-1H, 3′H-2,5′-bibenzimidazole]
MIC50 [1]: 1.22 µg/mL (≈ 3.38 µM) | MIC90 [1]: 1.22 µg/mL (≈ 3.38 µM) | mechanism of inhibition (Mg^2+ chelation) (E. coli Topoisomerase IA): chelates Mg^2+ required for, the religation of DNA | MIC50 (Enterococcus sp. (1121) [2]): < 0.25 µg/mL | MIC90 (Enterococcus sp. (1121) [2]): 8 µg/mL (≈ 22.2 µM) | MIC50 (Enterococcus sp. (1365)): 0.25 µg/mL (≈ 0.694 µM) | MIC90 (Enterococcus sp. (1365)): 11.2 µg/mL (≈ 31.2 µM) | MIC50 (Enterococcus sp. (432)): < 0.25 µg/mL | MIC90 (Enterococcus sp. (432)): 8.25 µg/mL (≈ 22.9 µM) | MIC50 (Escherichia coli 385): 1.5 µg/mL (≈ 4.16 µM) | MIC90 (Escherichia coli 385): 3.3 µg/mL (≈ 9.15 µM) | MIC50 [3]: 19 µg/mL (≈ 52.7 µM) | MIC90 [3]: 128 µg/mL (≈ 355 µM) | MIC50 [4]: 34.4 µg/mL (≈ 95.5 µM) | MIC90 [4]: 124 µg/mL (≈ 344 µM) | MIC50 [5]: < 0.25 µg/mL | MIC90 [5]: < 0.25 µg/mL | MIC50 [6]: < 0.25 µg/mL | MIC90 [6]: < 0.25 µg/mL | MIC90 (E. coli K12 mutant ΔacrA): 0.87 µg/mL (≈ 2.41 µM) | MIC90 (E. coli K12 mutant ΔemrA): 5.8 µg/mL (≈ 16.1 µM) | MIC90 (E. coli K12 mutant ΔtolC): 0.5 µg/mL (≈ 1.39 µM) | MBC (E. coli 360^R): 2 µg/mL (≈ 5.55 µM) | MIC50 (E. coli 360^R): 1 µg/mL (≈ 2.77 µM) | MIC90 (E. coli 360^R): 1.6 µg/mL (≈ 4.44 µM) | MBC (E. coli 132^R): 4 µg/mL (≈ 11.1 µM) | MIC50 (E. coli 132^R): 2 µg/mL (≈ 5.55 µM) | MIC90 (E. coli 132^R): 3.5 µg/mL (≈ 9.71 µM) | MBC (E. coli 555^R): 8 µg/mL (≈ 22.2 µM) | MIC50 (E. coli 555^R): 4 µg/mL (≈ 11.1 µM) | MIC90 (E. coli 555^R): 6.8 µg/mL (≈ 18.9 µM) | reduction in MIC in combination with efflux pump inhibitor [7]: four to eight fold reduction in MIC | FICI (E. coli ATCC25922; HN12b + CCCP): 0.3 | Interpretation (E. coli ATCC25922; HN12b + CCCP): Synergy (FICI of ≤0.5 will correspond to synergy) | FICI (E. coli ATCC25922; HN12b + PAβN): 0.1 | Interpretation (E. coli ATCC25922; HN12b + PAβN): Synergy (FICI of ≤0.5 will correspond to synergy) | MIC90 (E. coli ATCC25922; Escherichia coli, ATCC25922): 14 µg/mL | FICI (E. coli KK45; E. coli KK45, HN12b + CCCP): 0.3 | Interpretation (E. coli KK45; E. coli KK45, HN12b + CCCP): Synergy (FICI of ≤0.5 will correspond to synergy) | FICI (E. coli KK45; E. coli KK45, HN12b + PAβN): 0.7 | MIC90 (E. coli KK45; Escherichia coli, KK45): 16 µg/mL | FICI [8, 10]: 0.5 | Interpretation [8, 10]: Synergy (FICI of ≤0.5 will correspond to synergy) | FICI ([8]; K. planticola (MTCC 2272), HN12b + PAβN): 1 | MIC90 ([8]; Klebsiella planticola, MTCC2272): > 128 µg/mL | FICI (P. aeruginosa (MTCC1688); [11]): 0.6 | Interpretation (P. aeruginosa (MTCC1688); [11]): Synergy (FICI of ≤0.5 will correspond to synergy) | FICI (P. aeruginosa (MTCC1688); P. aeruginosa (MTCC1688), HN12b + PAβN): 1 | MIC90 (P. aeruginosa (MTCC1688); Pseudomonas aeruginosa, MTCC1688): > 128 µg/mL | FICI (P. aeruginosa (Ps 366); [12]): 0.6 | Interpretation (P. aeruginosa (Ps 366); [12]): Synergy (FICI of ≤0.5 will correspond to synergy) | FICI (P. aeruginosa (Ps 366); P. aeruginosa (Ps 366), HN12b + PAβN): 0.9 | MIC90 (P. aeruginosa (Ps 366); Pseudomonas aeruginosa): > 128 µg/mL | MIC90 (Enterococcus sp. (1121) [9]; Enterococcus): 8 µg/mL | FICI (Enterococcus sp. (1121) [9]; [13]): 0.5 | Interpretation (Enterococcus sp. (1121) [9]; [13]): Synergy (FICI of ≤0.5 will correspond to synergy) | FICI (Enterococcus sp. (1121) [9]; Enterococcus sp. (1121), HN12b + PAβN): 1 | MIC90 (Providencia sp. (P592); Providencia): 58 µg/mL | FICI (Providencia sp. (P592); Providencia sp. (P592), HN12b + CCCP): 0.6 | FICI (Providencia sp. (P592); [14]): 0.4 | Interpretation (Providencia sp. (P592); [14]): Synergy (FICI of ≤0.5 will correspond to synergy)

— patent US11434227B2, “Broad spectrum antibacterial activity of novel bisbenzimidazoles targeting topoisomerase IA and the synergistic composition of bisbenzimidazole with efflux pump inhibitors against pathogenic bacteria” (Jawaharlal Nehru University (JNU), priority 2016, dated 2022)
